Laboratory results from patent publication EP1171102B1, “ANHYDROUS TABLET OF RANITIDINE HYDROCHLORIDE WITH DOUBLE-LAYER COATING AND ITS COMPOSITION” (priority 1999, dated 2000).
Counter-ions that a name gives are not always drawn.

What was measured:
[1] = Hygroscopicity and conversion of the crystalline forms on storage; assay type: physicochemical; settings: product made by the method of the invention; chemico-physical analysis
[2] = cited from earlier work; for hygroscopicity: comparison of Form 1 and Form 2, hydrochloride
[3] = cited from earlier work

CNC(=C[N+](=O)[O-])NCCSCc1ccc(CN(C)C)o1.Cl [anhydrous ranitidine hydrochloride]
conversion into the allomorphous Form 2 during the storage [1]: not gradually converted during the storage into the allomorphous Form 2

CNC(=C[N+](=O)[O-])NCCSCc1ccc(CN(C)C)o1 [ranitidine hydrochloride Form 1, ranitidine hydrochloride]
hygroscopicity [2]: more hygroscopic than Form 2 | conversion into Form 2 ([2]; room temperature, in the presence of moisture): may be converted in small amounts in the presence of moisture into Form 2

CNC(=C[N+](=O)[O-])NCCSCc1ccc(CN(C)C)o1 [ranitidine hydrochloride Form 2, ranitidine hydrochloride]
hygroscopicity [2]: less hygroscopic than Form 1

CNC(=C[N+](=O)[O-])NCCSCc1ccc(CN(C)C)o1 [ranitidine hydrochloride]
water solubility ([3]; both allomorphous forms (Form 1 and Form 2)): 900 mg in 1 ml of water | solubility ([3]; in water, at 25° C): over 900 mg/ml
